# Key:
# [1] = target: NAMPT (Homo sapiens, UniProt P43490); experiment: TR-FRET Binding Assay of NAMPT with PRPP; conditions: with 200 μM PRPP and 2.5 mM ATP; 2 nM NAMPT, 2 nM probe, 16 hours equilibration
# Procedure, shortened: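 Substrate-containing variant: 200 μM PRPP plus 2.5 mM ATP are added to 2 nM NAMPT and 2 nM probe, with a 16-hour incubation ahead of TR-FRET reading.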
# [2] = tested on: PC3 cells; experiment: NAMPT Cell Proliferation Assay; type: cell-based; conditions: Homo sapiens, PC-3, 120 h, 5 days incubation, cell viability by Cell Titer Glo
# Procedure, shortened: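 PC3 cells were plated at 500 cells/well in RPMI with 10% heat-inactivated FBS, left to attach overnight, then given compounds in 10-fold dilutions from 10 μM to 1×10^−5 μM. After 5 days at 37° C and 5% CO2, viability was read by luminescence and IC50s came from sigmoidal fits of percent inhibition.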
# [3] = target: NAMPT (human, recombinant, C-terminally His-tagged) (Homo sapiens, UniProt P43490); experiment: Time-Resolved Fluorescence Resonance Energy Transfer (TR-FRET) Binding Assay of NAMPT; conditions: without substrates; 6.8 nM NAMPT, 200 nM probe, 3 hours equilibration
# Sequence of NAMPT (human, recombinant, C-terminally His-tagged) (P43490 whole entry): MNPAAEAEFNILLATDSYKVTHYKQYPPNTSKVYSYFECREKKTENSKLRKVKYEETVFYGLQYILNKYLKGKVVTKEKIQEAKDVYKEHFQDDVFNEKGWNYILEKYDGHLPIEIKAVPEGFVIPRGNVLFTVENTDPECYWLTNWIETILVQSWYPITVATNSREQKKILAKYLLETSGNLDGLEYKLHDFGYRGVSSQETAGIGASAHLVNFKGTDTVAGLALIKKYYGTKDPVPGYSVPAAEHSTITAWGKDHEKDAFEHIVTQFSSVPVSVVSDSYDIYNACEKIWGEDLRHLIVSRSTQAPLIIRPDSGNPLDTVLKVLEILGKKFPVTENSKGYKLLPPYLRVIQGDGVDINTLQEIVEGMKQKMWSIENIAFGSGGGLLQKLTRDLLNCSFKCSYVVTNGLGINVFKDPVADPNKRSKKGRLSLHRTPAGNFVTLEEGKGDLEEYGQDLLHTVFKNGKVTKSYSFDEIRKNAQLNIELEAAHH
# Procedure, shortened: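 In a displacement format, the nicotinamide-site tracer at 200 nM competed with test compound for 6.8 nM enzyme detected via 1 nM terbium anti-His antibody; incubation lasted 3 hours at room temperature in 50 mM HEPES pH 7.5, 100 mM NaCl. Normalized 520/495 nm emission ratios gave IC50 values.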
# Sequence of NAMPT (P43490 whole entry): as above
IC50 [1] [nM],IC50 [2] [nM],IC50 [3] [nM],SMILES
0.266,19.9,516,"Cc1cc(CC(=O)N(C[C@H]2CCCO2)c2ncc(C(=O)NCc3ccn4ccnc4c3)s2)no1 [Example 193, N-(imidazo[1,2-a]pyridin-7-ylmethyl)-2-{[(5-methyl-1,2-oxazol-3-yl)acetyl][(2R)-tetrahydrofuran-2-ylmethyl]amino}-1,3-thiazole-5-carboxamide]"
0.24,0.773,32.3,"O=C(NCc1ccn2ccnc2c1)c1cnc(N(C[C@H]2CCCO2)C(=O)CCc2ccno2)s1 [Example 194, N-(imidazo[1,2-a]pyridin-7-ylmethyl)-2-{[3-(1,2-oxazol-5-yl)propanoyl][(2R)-tetrahydrofuran-2-ylmethyl]amino}-1,3-thiazole-5-carboxamide]"
0.251,0.966,24.7,"O=C(NCc1ccn2ccnc2c1)c1cnc(N(C[C@H]2CCCO2)C(=O)CCc2cnoc2)s1 [Example 195, N-(imidazo[1,2-a]pyridin-7-ylmethyl)-2-{[3-(1,2-oxazol-4-yl)propanoyl][(2R)-tetrahydrofuran-2-ylmethyl]amino}-1,3-thiazole-5-carboxamide]"
0.169,6.75,358,"O=C(NCc1ccn2ccnc2c1)c1cnc(N(C[C@H]2CCCO2)C(=O)Cc2cscn2)s1 [Example 196, N-(imidazo[1,2-a]pyridin-7-ylmethyl)-2-{[(2R)-tetrahydrofuran-2-ylmethyl](1,3-thiazol-4-ylacetyl)amino}-1,3-thiazole-5-carboxamide]"
0.505,25.4,1570,"Cc1cc(CC(=O)N(C[C@H]2CCCO2)c2ncc(C(=O)NCc3ccn4ccnc4c3)s2)nn1C [Example 197, 2-{[(1,5-dimethyl-1H-pyrazol-3-yl)acetyl][(2R)-tetrahydrofuran-2-ylmethyl]amino}-N-(imidazo[1,2-a]pyridin-7-ylmethyl)-1,3-thiazole-5-carboxamide]"
0.225,1.84,32.5,"Cn1cc(CCC(=O)N(C[C@H]2CCCO2)c2ncc(C(=O)NCc3ccn4ccnc4c3)s2)cn1 [Example 198, N-(imidazo[1,2-a]pyridin-7-ylmethyl)-2-{[3-(1-methyl-1H-pyrazol-4-yl)propanoyl][(2R)-tetrahydrofuran-2-ylmethyl]amino}-1,3-thiazole-5-carboxamide]"
0.311,0.539,9.76,"Cc1noc(C)c1CC(=O)N(C[C@H]1CCCO1)c1ncc(C(=O)NCc2ccn3ccnc3c2)s1 [Example 199, 2-{[(3,5-dimethyl-1,2-oxazol-4-yl)acetyl][(2R)-tetrahydrofuran-2-ylmethyl]amino}-N-(imidazo[1,2-a]pyridin-7-ylmethyl)-1,3-thiazole-5-carboxamide]"
0.482,5.72,63,"O=C(NCc1ccc2nccn2c1)c1ccc(-c2cnn(CC3CCOC3)c2)s1 (stereo not drawn) [Example 200, N-(imidazo[1,2-a]pyridin-6-ylmethyl)-5-[1-(tetrahydrofuran-3-ylmethyl)-1H-pyrazol-4-yl]thiophene-2-carboxamide]"
0.281,1.89,46.6,"O=C(NCc1ccc2nccn2c1)c1ccc(-c2cnn(CC3CCOCC3)c2)s1 [Example 201, N-(imidazo[1,2-a]pyridin-6-ylmethyl)-5-[1-(tetrahydro-2H-pyran-4-ylmethyl)-1H-pyrazol-4-yl]thiophene-2-carboxamide]"
0.355,4.88,216,"Cn1cc(CC(=O)N(C[C@H]2CCCO2)c2ncc(C(=O)NCc3ccn4ccnc4c3)s2)cn1 [Example 202, N-(imidazo[1,2-a]pyridin-7-ylmethyl)-2-{[(1-methyl-1H-pyrazol-4-yl)acetyl][(2R)-tetrahydrofuran-2-ylmethyl]amino}-1,3-thiazole-5-carboxamide]"
0.21,2.39,13.7,"Cn1cccc1CCC(=O)N(C[C@H]1CCCO1)c1ncc(C(=O)NCc2ccn3ccnc3c2)s1 [Example 203, N-(imidazo[1,2-a]pyridin-7-ylmethyl)-2-{[3-(1-methyl-1H-pyrrol-2-yl)propanoyl][(2R)-tetrahydrofuran-2-ylmethyl]amino}-1,3-thiazole-5-carboxamide]"
0.773,1620,4830,"CC(C)(O)Cn1cc(-c2ncc(C(=O)NCc3ccn4ccnc4c3)s2)cn1 [Example 204, 2-[1-(2-hydroxy-2-methylpropyl)-1H-pyrazol-4-yl]-N-(imidazo[1,2-a]pyridin-7-ylmethyl)-1,3-thiazole-5-carboxamide]"
0.358,483,1060,"CC(C)Cn1cc(-c2ncc(C(=O)NCc3ccn4ccnc4c3)s2)cn1 [Example 205, N-(imidazo[1,2-a]pyridin-7-ylmethyl)-2-[1-(2-methylpropyl)-1H-pyrazol-4-yl]-1,3-thiazole-5-carboxamide]"
0.263,1.31,25.7,"O=C(NCc1ccc2nccn2c1)c1ccc(-c2cnn(CC3CCCOC3)c2)s1 (stereo not drawn) [Example 206, N-(imidazo[1,2-a]pyridin-6-ylmethyl)-5-[1-(tetrahydro-2H-pyran-3-ylmethyl)-1H-pyrazol-4-yl]thiophene-2-carboxamide]"
0.282,739,1510,"CC(C)(C)OC(=O)Nc1ccc(C(=O)NCc2ccn3ccnc3c2)cc1 [Example 207, tert-butyl {4-[(imidazo[1,2-a]pyridin-7-ylmethyl)carbamoyl]phenyl}carbamate]"
0.169,84.9,404,"O=C(CC1CCOCC1)Nc1ccc(C(=O)NCc2ccn3ccnc3c2)cc1 [Example 208, N-(imidazo[1,2-a]pyridin-7-ylmethyl)-4-[(tetrahydro-2H-pyran-4-ylacetyl)amino]benzamide]"
0.988,693,811,"O=C(CC1CCCO1)Nc1ccc(C(=O)NCc2ccn3ccnc3c2)cc1 (stereo not drawn) [Example 209, N-(imidazo[1,2-a]pyridin-7-ylmethyl)-4-[(tetrahydrofuran-2-ylacetyl)amino]benzamide]"
0.363,398,469,"O=C(CCC1CCCO1)Nc1ccc(C(=O)NCc2ccn3ccnc3c2)cc1 (stereo not drawn) [Example 210, N-(imidazo[1,2-a]pyridin-7-ylmethyl)-4-{[3-(tetrahydrofuran-2-yl)propanoyl]amino}benzamide]"
0.453,950,1660,"CC(C)OCC(=O)Nc1ccc(C(=O)NCc2ccn3ccnc3c2)cc1 [Example 211, N-(imidazo[1,2-a]pyridin-7-ylmethyl)-4-{[(propan-2-yloxy)acetyl]amino}benzamide]"
0.21,34.1,44.8,"O=C(CCC1CCCC1)Nc1ccc(C(=O)NCc2ccn3ccnc3c2)cc1 [Example 212, 4-[(3-cyclopentylpropanoyl)amino]-N-(imidazo[1,2-a]pyridin-7-ylmethyl)benzamide]"
0.271,39.7,116,"CC(C)CCC(=O)Nc1ccc(C(=O)NCc2ccn3ccnc3c2)cc1 [Example 213, N-(imidazo[1,2-a]pyridin-7-ylmethyl)-4-[(4-methylpentanoyl)amino]benzamide]"
1.28,289,641,"O=C(CC1CCOC1)Nc1ccc(C(=O)NCc2ccn3ccnc3c2)cc1 (stereo not drawn) [Example 214, N-(imidazo[1,2-a]pyridin-7-ylmethyl)-4-[(tetrahydrofuran-3-ylacetyl)amino]benzamide]"
3.04,686,2010,"N#Cc1ccc(CN(C(=O)CC2CCCC2)c2ccc(C(=O)NCc3ccc4nccn4c3)cc2)cc1 [Example 215, 4-[(4-cyanobenzyl)(cyclopentylacetyl)amino]-N-(imidazo[1,2-a]pyridin-6-ylmethyl)benzamide]"
0.19,6.59,118,"CC(C)(C)OC(=O)N1CCC(c2ccc(NC(=O)NCc3ccn4ccnc4c3)cc2)CC1 [Example 216, tert-butyl 4-(4-{[(imidazo[1,2-a]pyridin-7-ylmethyl)carbamoyl]amino}phenyl)piperidine-1-carboxylate]"
0.2,3.42,220,"CC(C)(C)OC(=O)N1CCC(c2ccc(C(=O)NCc3ccn4ccnc4c3)cc2)CC1 [Example 217, tert-butyl 4-{4-[(imidazo[1,2-a]pyridin-7-ylmethyl)carbamoyl]phenyl}piperidine-1-carboxylate]"
0.169,71.1,123,"O=C(NCc1ccn2ccnc2c1)c1cnc(N2CC(COCc3ccccc3)OC2=O)s1 (stereo not drawn) [Example 218, 2-{5-[(benzyloxy)methyl]-2-oxo-1,3-oxazolidin-3-yl}-N-(imidazo[1,2-a]pyridin-7-ylmethyl)-1,3-thiazole-5-carboxamide]"
0.903,5.59,79.4,"O=C(NCc1ccc2nccn2c1)c1ccc(-c2cnn(CC3CCCO3)c2)s1 (stereo not drawn) [Example 219, N-(imidazo[1,2-a]pyridin-6-ylmethyl)-5-[1-(tetrahydrofuran-2-ylmethyl)-1H-pyrazol-4-yl]thiophene-2-carboxamide]"

# — patent publication US9187472B2 (AbbVie Inc., priority 2012, dated 2015)
